The structures appear in SMILES notation. pIC50: −log10 of the molar value.

A short description of assay [1]: Inhibition of HIV gp41 hexamer bundle formation after 30 mins by size exclusion chromatography assay. Also on record: species or system Human immunodeficiency virus. Conditions: for pIC50: read-out: IC50; call rule not given here. In general terms: Size exclusion chromatography separates by hydrodynamic size, large species first.
Assay [2] has as its system Human immunodeficiency virus. Nature of the assay: Inhibition of HIV gp41 hexamer bundle formation at 50 uM after 30 mins by size exclusion chromatography assay.
The test system of assay [3] is Human immunodeficiency virus. Put plainly: Inhibition of HIV gp41 six-helix bundle formation at 25 uM by FRET-based assay relative to ADS--J1.
Assay [4] relates to Human immunodeficiency virus. Nature of the assay: Inhibition of HIV gp41 six-helix bundle formation at 25 uM by FRET-based assay relative to C18Aib.
A short description of assay [5]: Inhibition of HIV gp41 hexamer bundle formation after 30 mins by SEC-HPLC assay. Also on record: species or system Human immunodeficiency virus.
Assay [6] is described as follows: Inhibition of HIV gp41 hexamer bundle formation by ELISA. Also on record: species or system Human immunodeficiency virus. For orientation: In an ELISA, binding on a coated surface is turned into a signal by an enzyme label.

One may read the pIC50 as the IC50 on a negative log10 scale, so that one unit is a factor of ten. What is called inhibition is how much of the control response was suppressed. The low end stands for a weak effect, the high end for a strong effect. Regarding `O=S(=O)(c1ccccc1)n1ccc2c(CCOc3cccc(-c4cccc(-c5nnn[nH]5)c4)c3)cccc21`, the pIC50 in assay [1] is 4.48. The compound also had an inhibition in assay [2] of 100%.

As to `CC(C)(C)OC(=O)n1ccc2c(CCOc3cccc(-c4cccc(-c5nnn[nH]5)c4)c3)cccc21`, in assay [1], the IC50 entry is listed as “Not Active”. For the same compound, the inhibition in assay [2] was found to be 100%.

`COC(=O)c1ccc(CCOc2cccc(-c3cccc(-c4nn[nH]n4)c3)c2)c2ccccc12`: the inhibition in assay [3] came out at 67%; in assay [4], 75%; in assay [2], 95%. Further, the pIC50 in assay [1] is 4.51.

In the case of `O=C(O)c1ccc(-c2c3nc(c(-c4ccc(C(=O)O)cc4)c4ccc([nH]4)c(-c4ccc(C(=O)O)cc4)c4ccc([nH]4)c(-c4ccc(C(=O)O)cc4)c4nc2C=C4)C=C3)cc1`, the pIC50 in assay [5] was 6.05; in assay [6], 6.00.
